Source: the supplement of paper PMC10883282

How the values were obtained:
Test in all cases: relative viability vs DMSO control (72 h) (fraction); higher = more viable cells
[1] = test system: SYO-1
Method in brief: (§1)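 Relative viability is percent growth read by ATPLite and averaged over up to triplicate wells. Sarcoma cells were seeded in 384-well plates to reach 80–90% confluence and given 2.5 µl of serially diluted compound after 24 h, from source plates of 10 mM to 0.0002 mM. Incubation lasted 72 h at 37 °C, 5% CO2, with 0.1% DMSO vehicle and a 5 µM positive control, and the data were rescaled so 1 equals full and 0 equals none.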

[2] = test system: SK-LMS-1
Method in brief: as §1

[3] = test system: RD
Method in brief: as §1

[4] = test system: HS729
Method in brief: as §1

[5] = test system: SK-ES-1
Method in brief: as §1

[6] = test system: A204
Method in brief: as §1

[7] = test system: VA-ES-BJ
Method in brief: as §1

[8] = test system: KHOS-NP
Method in brief: as §1

[9] = test system: SW872
Method in brief: as §1

[10] = test system: MES-SA
Method in brief: as §1

[11] = test system: G401
Method in brief: as §1

[12] = test system: SW684
Method in brief: as §1

CN1CCN(CCOc2cc(OC3CCOCC3)c3c(Nc4c(Cl)ccc5c4OCO5)ncnc3c2)CC1 [Saracatinib]
Conditions	relative viability
[1], 0.00017 µM	1.02
[1], 0.00051 µM	1.02
[1], 0.00152 µM	0.971
[1], 0.00457 µM	0.965
[1], 0.01372 µM	0.958
[1], 0.04115 µM	0.917
[1], 0.1235 µM	0.91
[1], 0.3704 µM	0.826
[1], 1.111 µM	0.66
[1], 3.333 µM	0.481
[1], 10 µM	0.389
[2], 0.00017 µM	1.03
[2], 0.00051 µM	1.06
[2], 0.00152 µM	1.05
[2], 0.00457 µM	1.04
[2], 0.01372 µM	1.02
[2], 0.04115 µM	1.05
[2], 0.1235 µM	0.973
[2], 0.3704 µM	0.933
[2], 1.111 µM	0.864
[2], 3.333 µM	0.71
[2], 10 µM	0.491
[3], 0.00017 µM	1.05
[3], 0.00051 µM	1.08
[3], 0.00152 µM	1.096
[3], 0.00457 µM	1.08
[3], 0.01372 µM	1.07
[3], 0.04115 µM	1.01
[3], 0.1235 µM	0.948
[3], 0.3704 µM	0.836
[3], 1.111 µM	0.786
[3], 3.333 µM	0.692
[3], 10 µM	0.642
[4], 0.00017 µM	1
[4], 0.00051 µM	0.991
[4], 0.00152 µM	0.97
[4], 0.00457 µM	0.983
[4], 0.01372 µM	0.885
[4], 0.04115 µM	0.867
[4], 0.1235 µM	0.869
[4], 0.3704 µM	0.792
[4], 1.111 µM	0.691
[4], 3.333 µM	0.62
[4], 10 µM	0.627
[5], 0.00017 µM	0.989
[5], 0.00051 µM	1.05
[5], 0.00152 µM	1.04
[5], 0.00457 µM	1.01
[5], 0.01372 µM	1.04
[5], 0.04115 µM	1.01
[5], 0.1235 µM	0.968
[5], 0.3704 µM	0.951
[5], 1.111 µM	0.903
[5], 3.333 µM	0.81
[5], 10 µM	0.604
[6], 0.00017 µM	1.03
[6], 0.00051 µM	1.05
[6], 0.00152 µM	1.06
[6], 0.00457 µM	1.06
[6], 0.01372 µM	1.04
[6], 0.04115 µM	1.01
[6], 0.1235 µM	0.992
[6], 0.3704 µM	0.963
[6], 1.111 µM	0.882
[6], 3.333 µM	0.679
[6], 10 µM	0.468
[7], 0.00017 µM	1.05
[7], 0.00051 µM	1.07
[7], 0.00152 µM	1.07
[7], 0.00457 µM	1.11
[7], 0.01372 µM	1.11
[7], 0.04115 µM	1.14
[7], 0.1235 µM	1.14
[7], 0.3704 µM	1.12
[7], 1.111 µM	0.941
[7], 3.333 µM	0.805
[7], 10 µM	0.681
[8], 0.00017 µM	1.094
[8], 0.00051 µM	1.1
[8], 0.00152 µM	1.08
[8], 0.00457 µM	1.07
[8], 0.01372 µM	1.07
[8], 0.04115 µM	1.061
[8], 0.1235 µM	1.06
[8], 0.3704 µM	1.05
[8], 1.111 µM	0.994
[8], 3.333 µM	0.862
[8], 10 µM	0.693
[9], 0.00017 µM	1.07
[9], 0.00051 µM	1.05
[9], 0.00152 µM	1.06
[9], 0.00457 µM	1.019
[9], 0.01372 µM	1.05
[9], 0.04115 µM	0.977
[9], 0.1235 µM	0.9173
[9], 0.3704 µM	0.828
[9], 1.111 µM	0.693
[9], 3.333 µM	0.655
[9], 10 µM	0.59
[10], 0.00017 µM	0.934
[10], 0.00051 µM	0.933
[10], 0.00152 µM	0.936
[10], 0.00457 µM	0.94
[10], 0.01372 µM	0.959
[10], 0.04115 µM	0.923
[10], 0.1235 µM	0.943
[10], 0.3704 µM	0.925
[10], 1.111 µM	0.837
[10], 3.333 µM	0.692
[10], 10 µM	0.622
[11], 0.00017 µM	1.03
[11], 0.00051 µM	1.05
[11], 0.00152 µM	1.008
[11], 0.00457 µM	1.04
[11], 0.01372 µM	1.05
[11], 0.04115 µM	1.01
[11], 0.1235 µM	0.955
[11], 0.3704 µM	0.912
[11], 1.111 µM	0.86
[11], 3.333 µM	0.797
[11], 10 µM	0.668
[12], 0.00017 µM	1.11
[12], 0.00051 µM	1.15
[12], 0.00152 µM	1.16
[12], 0.00457 µM	1.177
[12], 0.01372 µM	1.15
[12], 0.04115 µM	1.17
[12], 0.1235 µM	1.14
[12], 0.3704 µM	1.15
[12], 1.111 µM	1.07
[12], 3.333 µM	1.05
[12], 10 µM	1.08
